pEC50, pIC50: −log10 of the molar value. Read-outs that look alike come from different tables or passages of the source.
What was measured:
[1] = target: T1, topoisomerase I (TOP1) (Homo sapiens, UniProt P11387); conditions: comparison statement; cited from earlier work
T1 sequence (P11387 1-765): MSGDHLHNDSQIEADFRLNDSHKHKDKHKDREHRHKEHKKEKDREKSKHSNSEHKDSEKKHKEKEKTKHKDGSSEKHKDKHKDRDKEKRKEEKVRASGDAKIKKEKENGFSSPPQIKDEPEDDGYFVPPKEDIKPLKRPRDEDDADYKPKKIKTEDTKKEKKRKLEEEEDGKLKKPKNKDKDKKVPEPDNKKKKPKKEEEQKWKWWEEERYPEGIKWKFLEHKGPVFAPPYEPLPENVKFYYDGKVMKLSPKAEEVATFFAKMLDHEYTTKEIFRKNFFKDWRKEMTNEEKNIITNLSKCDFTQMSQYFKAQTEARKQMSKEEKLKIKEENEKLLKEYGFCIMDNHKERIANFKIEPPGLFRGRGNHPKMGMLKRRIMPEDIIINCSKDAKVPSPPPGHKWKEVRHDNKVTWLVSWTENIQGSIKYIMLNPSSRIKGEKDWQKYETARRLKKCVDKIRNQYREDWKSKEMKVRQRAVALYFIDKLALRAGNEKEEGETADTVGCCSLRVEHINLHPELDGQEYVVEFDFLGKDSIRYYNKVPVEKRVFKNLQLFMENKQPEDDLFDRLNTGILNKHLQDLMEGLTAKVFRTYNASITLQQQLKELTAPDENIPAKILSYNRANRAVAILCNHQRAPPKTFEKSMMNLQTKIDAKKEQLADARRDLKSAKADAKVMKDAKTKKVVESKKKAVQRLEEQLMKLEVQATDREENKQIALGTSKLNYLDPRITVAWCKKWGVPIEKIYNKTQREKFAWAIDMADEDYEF

[2] = target: T2, recombinant HIV (pNL4-3) heterodimeric (p66/p51) Reverse Transcriptase (Human immunodeficiency virus type 1 group M subtype B, UniProt P12497); assay: reverse transcriptase assay; format: biochemical
T2 construct: purified recombinant HIV (pNL4-3) heterodimeric (p66/p51) Reverse Transcriptase (RT); purchased
Experimental: For the assays listed in Table I, the integrase assay was conducted using the XpressBio HIV-1 Integrase Assay Kit according to the manufacture's protocol. The protease assay was conducted with the Anthranilyl (Abz)-HIV Protease Substrate (Bachem H-2992), a hexapeptide FRET substrate derived from the p24/p15 cleavage site of the viral gag-pol poly-protein, which allows the screening of potential HIV protease inhibitors. 1 mM Abz-Substrate was diluted with Assay Buffer to a working stock of 20 μM. A 50 μM stock HIV-1 protease (received from Sook-kyung Lee (UNC)) was diluted with Assay Buffer (50 mM HEPES, pH 6.8, 150 mM NaCl, and 1% DMSO) to a working stock of 100 nM. 2 μl 100 nM HIV-1 Protease along with 2 uL 20 μM Abz Substrate was added into each well and incubated at room temperature (avoiding light) for 1 hour before being read on an Envision plate reader (Perkin Elmer) excitation at 280 nm, emission at >435 nm. The reverse transcriptase assay utilized purified recombinant HIV (pNL4-3) heterodimeric (p66/p51) Reverse Transcriptase (RT) that was purchased from a commercially available source. The assay was performed in 96-well filter plate, where RT activity was determined by the incorporation of radiolabeled deoxyribonucleotides into the newly synthesized DNA strand. The RT reaction mixture contained in vitro transcribed viral RNA derived from the HIV-1NL4-3 5′-LTR region (position 454 to 652) and primer that is complementary to the primer binding site (PBS, nucleotide residues nucleotides 636 to 652), radiolabeled deoxyribonucleotide, dNTPs and reverse transcriptase. Briefly, the reaction was carried out in a volume of 50 μl containing 50 mM Tris HCl, pH 7.8, 50 mM KCl, 5 mM MgCl2, 1 mM DTT, 50 μM each of dATP, dCTP, dGTP, 50 nM dTTP, 1 μCi of [^3H] dTTP (70-90 Ci/mM) and 5 nM template/primer. The reaction was initiated by the addition of 10 nM RT. For compound screening, serially diluted test articles were added to the reaction followed by the addition of RT. The reaction mixture was incubated at 37° C. for 1 h, and then quenched by the addition of ice-cold trichloroacetic acid (TCA) to the final concentration of 10%. The plate was incubated at 4° C. for 1 h to precipitate the synthesized DNA, then rinsed 3-times with 10% TCA and 1 time with 70% ethanol. After addition of 25 μl scintillation fluid to completely dried wells, radioactivity is counted by MicroBeta scintillation counter. The reduction of radioactivity represents the potency of compound inhibition.

[3] = test system: IIIB (Subtype B); assay: PBMC Acute Infection, IIIB; format: cell-based, HIV
Experimental: (§1) PHA-stimulated cells from at least two normal donors were pooled (i.e. mixed together), diluted in fresh medium to a final concentration of 1×10^6 cells/mL, and plated in the interior wells of a 96-well round bottom microplate at 50 μL/well (5×10^4 cells/well). Pooling of mononuclear cells from more than one donor was used to minimize the variability observed between individual donors in quantitative and qualitative differences in HIV infection and overall response to the PHA and IL-2 of primary lymphocyte populations. Each plate contained virus control wells (cells plus virus) and experimental wells (drug plus cells plus virus) of either 00KE_KER2008 (Subtype A), IIIB (Subtype B), or 98US_MSC5016 (Subtype C). Test drug dilutions were prepared at a 2×concentration and 100 μL of each concentration was placed in appropriate wells. Fifty μL of a predetermined dilution of virus stock was placed in each test well (final MOI≅0.1). After this period, cell-free supernatant samples were collected for analysis of reverse transcriptase (RT) activity with an RT assay. […] In the Table below SI50=CC50/EC50 and SI90=CC90/EC90.

[4] = test system: 00KE_KER2008 (Subtype A); assay: PBMC Acute Infection, 00KE_KER2008; format: cell-based, HIV
Experimental: as §1

[5] = test system: 98US_MSC5016 (Subtype C); assay: PBMC Acute Infection, 98US_MSC5016; format: cell-based, HIV
Experimental: as §1

[6] = target: T1, topoisomerase I (TOP1); assay: topoisomerase I inhibition
[7] = test system: Vif-dependent APOBEC3G degradation; assay: Vif-Dependent APOBEC3G Degradation Assay; format: cell-based, HIV
Experimental: APOBEC3G-V5-mCherry was stably expressed from the pIRES-P vector in 293T cells under puromycin selection. Fifty ng of plasmid expressing Vif-HA (accession no. AB573087) was transfected into the cells in 384-well format with Turbofect on a liquid handling robot. Four hours after transfection the compounds were added to cells in a range from 0-15 μM. Twenty-four hours after compound addition mCherry fluorescence was read on a BioTek Synergy4 plate reader (ex=587 nm, em=610 nm). Relative fluorescence units (RFU) from compound treated wells were quantified using thresholds set by the −Vif (positive control) and +Vif (negative control).

[8] = target: T3, pNL4-3 Vif (Vif multimerization) (Human immunodeficiency virus type 1 group M subtype B, UniProt P12504); assay: Vif FqRET Multimerization Assay; format: cell-based, HIV
T3 construct: expressed in transfected cells; host or cells: HEK293T
Description: The quenched fluorescence resonance energy transfer (FqRET) cell-based assay utilized expression of pNL4-3 Vif (accession no. M19921) tagged separately with either a EGFP fluorophore (EGFP-V5-Vif) or a REACh2 quencher (Vif-HA-REACh2) in the pIRES-P vector. The Vif multimerization assay was established through robotic co-transfection of HEK293T (293T) cells with Turbofect (Thermo) and optimized for input plasmid ratio (1:4, fluorophore to quencher) to achieve maximum quench of fluorescent signal. EGFP fluorescence was quantified 24 hours after transfection with a BioTek Synergy4 plate reader (ex=485 nm, em=528 nm) followed by the addition of 0-30 μM compound. The plates were read a second time 24 hours after compound addition. The differential between the first and second read in each well was quantified relative to the DMSO control to determine the change in relative fluorescence units (ΔRFU)
The interaction of 2 molecules of Vif (i.e. dimerization) enables quenching of Enhanced Green Fluorescent Protein (EGFP) signal by Resonance Energy Accepting Chromophore 2 (REACh2), a dark mutant of yellow fluorescent protein that is capable of accepting the EGFP donor fluorescence and quenching its signal without an acceptor signal.

[9] = test system: PBMCs; assay: PBMC Acute Infection, cytotoxicity (CC50/CC90); format: cell-based
Experimental: as §1

[10] = PBMC Acute Infection, cytotoxicity (CC50/CC90); format: cell-based; conditions: human
Experimental: as §1

[11] = Human immunodeficiency virus 1, read-out: A3G degradation at
[12] = row of isolate 98US_MSC5016, subtype C
[13] = row of isolate 00KE-KER2008, subtype A
[14] = Human immunodeficiency virus 1, IIIB
[15] = Human immunodeficiency virus 1, PBMC

T3 sequence (P12504 whole entry): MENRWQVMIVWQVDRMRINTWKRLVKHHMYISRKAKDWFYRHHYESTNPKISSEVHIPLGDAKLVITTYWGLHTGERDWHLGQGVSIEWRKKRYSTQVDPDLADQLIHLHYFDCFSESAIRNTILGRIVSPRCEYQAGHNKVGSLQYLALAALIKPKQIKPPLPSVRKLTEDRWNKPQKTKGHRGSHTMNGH

**Q.** For `CC[C@@]1(O)C(=O)OCc2c1cc1n(c2=O)Cc2cc3ccccc3nc2-1` [camptothecin], which “inhibition of topoisomerase I (TOP1) (result in words)” value [1] is on record?
**A.** The value was “inhibit”.

**Q.** With `Cc1ccnc2c1NC(=O)c1cccnc1N2C1CC1` [nevirapine, reference compound] as the compound, how does the pIC50 [2] read?
**A.** The pIC50 was 6.64.

**Q.** With `CC[C@@]1(O)C(=O)NCc2c1cc1n(c2=O)Cc2cc3c(N)cccc3nc2-1` [Compound O5-9A, (S)-10-Amino-4-ethyl-4-hydroxy-1,2-dihydroquinolino[2′,3′:3,4]pyrrolo[1,2-b][2,7]naphthyridine-3,14(4H,12H)-dione] as the compound, how does the pEC50 ([3]; Human immunodeficiency virus 1, isolate IIIB, subtype B, RT activity readout, read-out: EC50) read?
**A.** Its pEC50 is 6.82.

**Q.** What about the EC90 ([3]; Human immunodeficiency virus 1, isolate IIIB, subtype B, RT activity readout, read-out: EC90) of the same compound?
**A.** The EC90 was 310 nM.

**Q.** What about the pEC50 ([4]; Human immunodeficiency virus 1, PBMC, isolate 00KE-KER2008, subtype A, RT activity readout, read-out: EC50) of the same compound?
**A.** The pEC50 was 7.30.

**Q.** And the EC90 ([4]; Human immunodeficiency virus 1, PBMC, isolate 00KE-KER2008, subtype A, RT activity readout, read-out: EC90)?
**A.** The EC90 was 230 nM.

**Q.** What about the pEC50 ([5]; Human immunodeficiency virus 1, PBMC, isolate 98US_MSC5016, subtype C, RT activity readout, read-out: EC50) of the same compound?
**A.** Its pEC50 is 7.22.

**Q.** And the EC90 ([5]; Human immunodeficiency virus 1, PBMC, isolate 98US_MSC5016, subtype C, RT activity readout, read-out: EC90)?
**A.** The EC90 was 220 nM.

**Q.** And the “inhibition of topoisomerase I (TOP1) (result in words)” value [6]?
**A.** The value was “do not inhibit”.

**Q.** What about the “Vif-dependent A3G degradation (result in words)” value [7] of the same compound?
**A.** Its value is “block”.

**Q.** What about the pEC50 ([7]; Human immunodeficiency virus 1, HEK-293T, 24 h, read-out: EC50, A3G Degradation Assay) of the same compound?
**A.** Its pEC50 is 5.92.

**Q.** What about the pEC50 [7, 11] of the same compound?
**A.** The pEC50 was 6.00.

**Q.** And the pEC50 [8]?
**A.** The pEC50 was 5.41.

**Q.** What about the “Vif multimerization (result in words)” value [8] of the same compound?
**A.** The value was “block”.

**Q.** And the CC90 [9, 12]?
**A.** The CC90 was over 100000 nM.

**Q.** And the CC90 ([9]; row of isolate IIIB, subtype B)?
**A.** The CC90 was over 100000 nM.

**Q.** What about the CC50 [10, 13] of the same compound?
**A.** Its CC50 is 9320 nM.

**Q.** And the CC90 [10, 13]?
**A.** The CC90 was over 100000 nM.

**Q.** What about the CC50 [10, 12] of the same compound?
**A.** The CC50 was 9320 nM.

**Q.** And the CC50 ([10]; row of isolate IIIB, subtype B)?
**A.** Its CC50 is 10000 nM.

**Q.** With `CCc1c2c(nc3ccc(OC(=O)N4CCC(N5CCCCC5)CC4)cc13)-c1cc3c(c(=O)n1C2)CNC(=O)[C@]3(O)CC` [Irino-L, (S)-4,11-diethyl-4-hydroxy-3,14-dioxo-1,2,3,4,12,14-hexahydroquinolino[2′,3′:3,4]pyrrolo[1,2-b][2,7]naphthyridin-9-yl [1,4′-bipiperidine]-1′-carboxylate] as the compound, how does the pEC50 [3, 14] read?
**A.** Its pEC50 is 5.64.

**Q.** What about the EC90 [3, 14] of the same compound?
**A.** Its EC90 is 7920 nM.

**Q.** And the pEC50 [4, 15]?
**A.** The pEC50 was 5.65.

**Q.** And the EC90 [4, 15]?
**A.** The EC90 was 7710 nM.

**Q.** What about the pEC50 [5, 15] of the same compound?
**A.** Its pEC50 is 5.73.

**Q.** What about the EC90 [5, 15] of the same compound?
**A.** The EC90 was 7110 nM.

**Q.** And the pEC50 [7, 11]?
**A.** Its pEC50 is 5.30.

**Q.** What about the CC50 [10, 13] of the same compound?
**A.** Its CC50 is 17700 nM.

**Q.** What about the CC90 [10, 13] of the same compound?
**A.** The CC90 was 82800 nM.

From US20220000860A1, “COMPOUNDS, COMPOSITIONS, AND METHODS FOR TREATING HUMAN IMMUNODEFICIENCY VIRUS” (OYAGEN, INC., priority 2017, published 2022)
